Measured values reported in patent US20030125321A1, “Methods and compositions for treating respiratory pathologies” (priority 2001, published 2003).

System: male Wistar rats
Assay: Pulmonary paracellular permeability to 125I labelled human serum albumin after intratracheal Pseudomonas aeruginosa LPS
Assay type: in vivo, rat
Description: Pulmonary permeability was measured by means of a tracer, ^125I -labelled human serum albumin which, after intratracheal infusion, was determined in urine, plasma, lung tissue and bronchoalveolar lavage fluid.
For this experiment, three groups of 6 male Wistar rats (200-225 g) were pretreated either with ML-7 by the IP route (3 mg/kg then 1 mg/kg 3 times a day for 48 h) or the vehicle (ethanol 10%). One hour after the next-to-last administration of ML-7, under urethane anesthesia ([…] IP), a slow intratracheal infusion of 150 μl of an iso-osmolar solution (5% bovine albumin +PBS) containing the tracer and containing (2 groups) or not containing (control group) LPS (1 μg/rat) was given.
Four hours after the intratracheal infusion, urine, blood, bronchoalveolar lavage (BAL) and lungs were harvested and ^125I radioactivity was measured on each sample.

With `O=S(=O)(c1cccc2c(I)cccc12)N1CCCNCC1` [ML-7, 1-(5-iodonaphtalene-1-sulfonyl)-1H-hexahydro-1,4-diazepine] the “LPS-induced increase in pulmonary permeability” value (ML-7 pretreatment IP 3 mg/kg then 1 mg/kg 3 times a day for 48 h) was “inhibited” and the “effect on vascular endothelial cells (endothelium permeability, tone, pulmonary circulating hemodynamics)” value (inferred from unchanged plasma radioactivity) was “does not present effect”.
